Measurements: patent publication US8288423B2, “FXa inhibitors with cyclic amidines as P4 subunit, processes for their preparations, and pharmaceutical compositions and derivatives thereof” (Legochem Bioscience Ltd., priority 2007, dated 2012)

Legend:
factor Xa = target: T1, factor Xa (Homo sapiens, UniProt P00742); assay: Inhibiting activity of factor Xa inhibitor (chromogenic substrate S-2765); assay type: biochemical; conditions: calculated from IC50 by Equation 1, Km 125 μM; S-2765 substrate, pH 7.8, 37° C.; read-out: Ki (nM), factor Xa inhibition constant
T1 construct: purchased Enzyme Research Laboratories
Experimental: Relative rate of hydrolysis (as compared to control group without inhibition) was plotted versus logarithm of the concentration of the oxazolidinone derivative with a cyclic amidine represented by Chemical Formula (1) according to the invention, to obtain the concentration of the inhibitor for 50% decrease in the rate of hydrolysis of the substrate.
The inhibition constant can be obtained by spectrophotometry whereby the color development is determined as a function of time, after being reacted with a specific substrate which develops color upon hydrolysis caused by action of factor Xa.
For the inhibitor solution, the inhibitor compound according to the present invention was diluted with dimethylsulfoxide (DMSO) in 10 mM, and then further diluted with third-distilled water (finally 10% DMSO solution), and the solution (10 μL) was added to each well. […] The substrate solution (20 μL) thus prepared was added to each well.
Kinetic analysis of the reaction was performed by a kinetic plate reader (Molecular Devices, Spectramax 190) at 37° C. for 20 minutes.
Relative rate of hydrolysis (compared to control group without inhibition) versus logarithm of the oxazolidinone derivative with a cyclic amidine group (Chemical Formula I) was plotted to obtain the concentration of the inhibitor to decrease the rate of hydrolysis of the substrate by 50%. GraFit (version 5.0.12) program for statistical process purchased from Erithacus Software was employed.
When inhibition constant Ki is calculated, it can be calculated according to Equation (1).

Citrated plasma = assay: Measurement of PT (prothrombin time) in citrated plasma; assay type: biochemical; conditions: STA-Neoplastine, 37° C., unit not given (2×PT value)
Experimental: The effect of oxazolidinone derivatives with cyclic amidines represented by Chemical Formula (1) according to the invention on blood coagulation was compared by measuring PT (prothrombin time) and aPTT (activated Partial Thromboplastin Time). The procedure of measurement is described below. Citrated plasma was purchased from Daejeon-Chungnam Blood Institute (located at Daejeon, Korea). A compound solution (5 μL) according to the invention (in a various concentration gradient, 5% DMSO solution) was added to the plasma ([…]), and the reaction was carried out at 37° C. for 5 minutes. STA-Neoplastine (Diagnostica Stago) (100 μL) was then added thereto, and the duration for plasma coagulation was measured. The duration for plasma coagulation is determined as the point when the absorbance at 340 nm reaches 0.1.

plasma = assay: Measurement of aPTT (activated partial thromboplastin time) in plasma; assay type: biochemical; design: unit not given here; conditions: STA-PTT, CaCl2, 37° C., unit not given
Experimental: The effect of oxazolidinone derivatives with cyclic amidines represented by Chemical Formula (1) according to the invention on blood coagulation was compared by measuring PT (prothrombin time) and aPTT (activated Partial Thromboplastin Time). The procedure of measurement is described below. A solution (5 μL) of the oxazolidinone derivative with cyclic amidine group represented by Chemical Formula (1) according to the invention (in a various concentration gradient, 5% DMSO solution) was added to the plasma ([…]), and the reaction was carried out at 37° C. for 2 minutes. STA-PTT (Diagnostica Stago) (50 μL) was then added thereto. After the reaction at 37° C. for additional 5 minutes, 25 mM CaCl2 (50 μL) was added thereto, and the duration for plasma coagulation was measured. The duration for plasma coagulation was determined as the point when the absorbance at 340 nm reaches 0.1.

thrombus formation = assay: % inhibition against thrombus formation, arteriovenous shunt model in white rats; assay type: in vivo, white rats (male Sprague Dawley); design: concentration or dose not given beside the values; conditions: orally administered 1 hour before opening of the shunt; 15 minutes circulation; versus control group
Experimental: 3) Determination of % Inhibition Against Thrombus Formation by Means of Arteriovenous Shunt Model ([…]) in White Rats Antithrombotic effect of the compounds according to the present invention was evaluated by using arteriovenous shunt model in white rats. The animals used were male Sprague Dawleys with the body weight of 200-250 g. For one day before the experiment, the animals were fasted. Five to six animals were used for each test group. The compound of Example was orally administered 1 hour before opening of the shunt. The rats were anesthetized by abdominal administration of Rompun (Bay HealthCare) and Chloral hydrate or urethane in an amount of 12 and 50 mg per kg of the body weight. Into the left carotid artery and right jugular vein of the white rat, a polyethylene(PE)-60 tubing filled with physiological saline was inserted and secured. Both ends of individual PE tubing were connected to a silicone tubing having a length of 5 cm in which a cotton thread have been incorporated diagonally, and the shunt was open to provide circulation for 15 minutes. The shunt was then compressed by using jaws, and the cotton thread was carefully removed and the thrombus generated was weighed. The % inhibition of thrombus formation was calculated by using the weight of thrombus obtained from white rats of the control group to which a solution of oral administration was administered.

T1 sequence (P00742 235-488 limits assumed): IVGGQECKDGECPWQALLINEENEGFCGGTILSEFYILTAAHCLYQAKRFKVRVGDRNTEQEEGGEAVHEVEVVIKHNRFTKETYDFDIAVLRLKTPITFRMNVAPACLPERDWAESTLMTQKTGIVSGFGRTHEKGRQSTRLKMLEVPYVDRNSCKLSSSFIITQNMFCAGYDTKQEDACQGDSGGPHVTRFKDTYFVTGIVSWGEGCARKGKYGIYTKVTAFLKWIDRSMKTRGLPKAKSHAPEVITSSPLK
T1 sequence (P00742 41-179 partner limits assumed): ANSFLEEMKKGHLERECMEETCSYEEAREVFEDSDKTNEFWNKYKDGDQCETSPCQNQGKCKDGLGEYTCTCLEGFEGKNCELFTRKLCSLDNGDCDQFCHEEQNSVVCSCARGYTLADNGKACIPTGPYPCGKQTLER

Ki (factor Xa) [nM] | SMILES | PT (Citrated plasma) | APTT (plasma) | % Inhibition (of thrombus formation) (thrombus formation) [%]
13.1 | O=C(NC[C@H]1CN(c2ccc(C3=NCCCN3)cc2)C(=O)O1)c1ccc(Cl)s1 [Compound 106, 5-chlorothiophene-2-carboxylic acid {(S)-2-oxo-3-[4-(1,4,5,6-tetrahydropyrimidine-2-yl)-phenyl]-oxazolidin-5-ylmethyl}-amide] | 0.09 | 0.55 | 0
2.42 | CN1CCN=C1c1ccc(N2C[C@H](CNC(=O)c3ccc(Br)s3)OC2=O)cc1 [Compound 108, 5-bromothiophene-2-carboxylic acid {(S)-3-[4-(1-methyl-4,5-dihydro-1H-imidazol-2-yl)-phenyl]-2-oxo-oxazolidin-5-ylmethyl}-amide] | 0.03 | 0.15 | 30
4.67 | CCN1CCN=C1c1ccc(N2C[C@H](CNC(=O)c3ccc(Br)s3)OC2=O)cc1 [Compound 109, 5-bromothiophene-2-carboxylic acid {(S)-3-[4-(1-ethyl-4,5-dihydro-1H-imidazol-2-yl)-phenyl]-2-oxo-oxazolidin-5-ylmethyl}-amide] |  |  | 26
4.4 | CCN1CCN=C1c1ccc(N2C[C@H](CNC(=O)c3ccc(Cl)s3)OC2=O)cc1F [Compound 110] | 0.03 | 0.19 | 38
10.5 | CN1CCCN=C1c1ccc(N2C[C@H](CNC(=O)c3ccc(Cl)s3)OC2=O)cc1F [Compound 111, 5-chloro-thiophene-2-carboxylic acid {(S)-3-[3-fluoro-4-(1-methyl-1,4,5,6-tetrahydropyrimidin-2-yl)-phenyl]-2-oxo-oxazolidin-5-ylmethyl}-amide] | 0.03 | 0.28 | 49
4.05 | CCN1CCN=C1c1ccc(N2C[C@H](CNC(=O)c3ccc(Cl)s3)OC2=O)cc1Cl [Compound 112, 5-chlorothiophene-2-carboxylic acid {(S)-3-[3-chloro-4-(1-ethyl-4,5-dihydro-1H-imidazol-2-yl)-phenyl]-2-oxo-oxazolidin-5-ylmethyl}-amide] | 0.05 | 0.19 | 26
9.19 | CN1CCCN=C1c1ccc(N2C[C@H](CNC(=O)c3ccc(Cl)s3)OC2=O)cc1Cl [Compound 113, 5-chloro-thiophene-2-carboxylic acid {(S)-3-[3-chloro-4-(1-methyl-1,4,5,6-tetrahydropyrimidin-2-yl)-phenyl]-2-oxo-oxazolidin-5-ylmethyl}-amide] | 0.11 | 0.35 | 53
2.45 | CC1=NCCN1c1ccc(N2C[C@H](CNC(=O)c3ccc(Cl)s3)OC2=O)cc1 [Compound 114] | 0.03 | 0.12 | 41
1.29 | O=C(NC[C@H]1CN(c2ccc(N3C=NCC3)cc2)C(=O)O1)c1ccc(Cl)s1 [Compound 115] | 0.34 | 2.61 | 
3.46 | CCC1=NCCN1c1ccc(N2C[C@H](CNC(=O)c3ccc(Cl)s3)OC2=O)cc1 [Compound 116] | 0.05 | 0.18 | 65
69.9 | O=C(NC[C@H]1CN(c2ccc(N3CCN=C3C3CCC3)cc2)C(=O)O1)c1ccc(Cl)s1 [Compound 118] | 0.58 |  | 
3.7 | CC(C)CC1=NCCN1c1ccc(N2C[C@H](CNC(=O)c3ccc(Cl)s3)OC2=O)cc1 [Compound 119] | 0.03 |  | 4
27.9 | C=C(C)C1=NCCN1c1ccc(N2C[C@H](CNC(=O)c3ccc(Cl)s3)OC2=O)cc1 [Compound 120] | 0.31 |  | 37
1.81 | CC(C)=CC1=NCCN1c1ccc(N2C[C@H](CNC(=O)c3ccc(Cl)s3)OC2=O)cc1 [Compound 121] | 0.06 |  | 35
1.71 | O=C(NC[C@H]1CN(c2ccc(N3CCN=C3c3ccoc3)cc2)C(=O)O1)c1ccc(Cl)s1 [Compound 124] | 0.07 | 0.26 | 52
2.33 | O=C(NC[C@H]1CN(c2ccc(N3CCN=C3C3CCOC3)cc2)C(=O)O1)c1ccc(Cl)s1 (stereo partly shown) [Compound 125] | 0.05 |  | 42
12.8 | O=C(NC[C@H]1CN(c2ccc(N3CCN=C3c3ccncc3)cc2)C(=O)O1)c1ccc(Cl)s1 [Compound 126] | 0.16 |  | 22
6.14 | O=C(NC[C@H]1CN(c2ccc(N3CCN=C3c3cccnc3)cc2)C(=O)O1)c1ccc(Cl)s1 [Compound 127] | 0.12 |  | 27
13.9 | O=C(NC[C@H]1CN(c2ccc(N3CCN=C3c3ccccn3)cc2)C(=O)O1)c1ccc(Cl)s1 [Compound 128] | 0.95 |  | 22
0.92 | Cc1ccc(C2=NCCN2c2ccc(N3C[C@H](CNC(=O)c4ccc(Cl)s4)OC3=O)cc2)cc1 [Compound 129] | 0.30 |  | 0
8.6 | Cc1csc(C2=NCCN2c2ccc(N3C[C@H](CNC(=O)c4ccc(Cl)s4)OC3=O)cc2)n1 [Compound 130] | 0.94 |  | 15
0.69 | Cc1ccc(C2=NCCN2c2ccc(N3C[C@H](CNC(=O)c4ccc(Cl)s4)OC3=O)cc2)s1 [Compound 131] | 0.08 | 0.39 | 0
1.09 | O=C(NC[C@H]1CN(c2ccc(N3CCN=C3c3ccc(Cl)s3)cc2)C(=O)O1)c1ccc(Cl)s1 [Compound 132] | 0.29 | 0.88 | 60
1.21 | O=C(NC[C@H]1CN(c2ccc(N3CCN=C3c3cccc(Cl)c3)cc2)C(=O)O1)c1ccc(Cl)s1 [Compound 133] | 0.26 |  | 44
4.01 | O=C(NC[C@H]1CN(c2ccc(N3CCN=C3c3ccc(C(F)(F)F)cc3)cc2)C(=O)O1)c1ccc(Cl)s1 [Compound 134] | 0.36 |  | 4
31.5 | COC(=O)C1(C2=NCCN2c2ccc(N3C[C@H](CNC(=O)c4ccc(Cl)s4)OC3=O)cc2)CC1 [Compound 135] | 0.15 | 1.34 | 62
1.78 | COC(=O)C(C)(C)C1=NCCN1c1ccc(N2C[C@H](CNC(=O)c3ccc(Cl)s3)OC2=O)cc1 [Compound 136] | 0.10 |  | 31
2.63 | O=C(NC[C@H]1CN(c2ccc(N3CCN=C3c3ccc(Cl)s3)cc2)C(=O)O1)c1ccc(Br)s1 [Compound 140] | 0.24 |  | 40
